Source: paper PMC4674085, “Towards Prebiotic Catalytic Amyloids Using High Throughput Screening” (PLoS ONE, 2015)

Assays:
[1] = Plate reader 4NPA hydrolysis kinetics of purified peptide amyloids at pH 7.3; assay type: biochemical; conditions: 4NPA hydrolysis, pH 7.3 HEPES with zinc(II), 20 μM purified peptide; for k cat/K M: 0.1-1.0 mM 4NPA, 1% CH3CN, A400, Michaelis-Menten fit, triplicate (duplicate for 8, 27, 34, 35); for k cat/K M / k cat: per monomer peptide; for K M / k cat: Michaelis-Menten fit
[2] = ATR-FTIR, amide I peak of aggregates; assay type: physicochemical; set-up: key: indicates that no peak was observed within the typical range of stretching frequencies forβ-structure (between dashed lines at 1638 cm−1 and 1615 cm−1); conditions: air-dried pellet, crude peptide
Description: Samples were prepared as for the CD measurements, but instead of re-suspending the samples after centrifugation, 3 μl of H2O were added to the pellet so that it could be placed onto the diamond ATR cell of a Bruker Alpha-p ATR-FTIR spectrometer followed by air-drying before measuring the spectra. Blank subtraction was performed with an empty cell (air) and all measurements were performed without the pressure applicator.
(§1) Table A and associated data: Biophysical characterization of library
(§2) Sequence ThT1 CD2 FTIR3 EM4 ThT CD FTIR EM X-ray5 […]
3. The peak position in amide I region is given in cm−1. […]

[3] = Thioflavin T fluorescence (ThT); assay type: physicochemical; conditions: crude peptide fibrillized at 160 μM, mixed 10:1 with 50 μM ThT, ex 440 nm em 480 nm
Description: The samples of the amyloid library (50 mM HEPES pH 7.3 or 50 mM NaOAc pH 4) were mixed 10:1 with 50 μM ThT and the increase in fluorescence was measured in a 384-well plate in a BMG Pherastar platereader (ex: 440 nm em: 480 nm). The background signal from the peptides without ThT was subtracted from the one with the ThT present in the sample. Due to the large dynamic range of the signals among the many samples, the measurements were made at two different gain settings to ensure that all of the signals fell within the measureable range.
as §1
Sequence ThT1 CD2 FTIR3 EM4 ThT CD FTIR EM X-ray5
1. Fold increase in ThT ﬂuorescence over background. […]

[4] = Transmission electron microscopy (TEM) of fibrils; assay type: physicochemical; set-up: key: +: ﬁbrils present; −: absent in EM micrographs; conditions: uranyl acetate stain
Description: The samples of the amyloid library (50 mM HEPES pH 7.3 or 50 mM NaOAc pH 4) were applied directly to glow-discharged carbon-coated grids, washed and then stained with uranyl acetate. Images were recorded on a Philips CM 12 electron microscope.
as §1, §2
4. (+) ﬁbrils present or (−) absent in EM micrographs. […]

[5] = Circular dichroism (CD), secondary structure of aggregates; assay type: physicochemical; set-up: key: β+: has minimum near 217 nm; β++: has minimum near 217 nm and a maximum near 197 nm; −: signal too weak to interpret; ?: spectra not typical of any secondary structure
Description: The concept of creating an amyloid library out of a peptide library is only meaningful if the vast majority of the peptides actually form amyloids in at least one of the conditions tested. To establish the validity of our amyloid library we measured circular dichroism (CD), Fourier transform infrared spectroscopy (ATR-FTIR), as well as thioflavin T (ThT) fluorescence of peptides 1–33 at pH 7.3 (50 mM HEPES) and pH 4 (50 mM NaOAc) (see interactive Table A and associated data in S1 File). Based on the analysis of the CD and ATR-FTIR spectra (shown in the interactive Table A in S1 File) all the peptides formed β-structured aggregates in at least one condition. Most of the 33 peptides induced a significant increase in ThT fluorescence in at least one condition. […] The fibrils from a selection of the active peptides were aligned and analyzed by X-ray diffraction (Figures C and D in S1 File). In each case we observed the cross-β diffraction pattern typical of amyloid fibrils, although the degree of sample alignment varied. For two samples, 14 and 27, the difference in meridional and equatorial diffraction intensities was small but easily detected in a plot of the angular dependence of the intensity (Figure D in S1 File). The conclusion that can be drawn out of the multiple analysis techniques is that the 33 peptides that comprise the library are overwhelmingly prone to form fibril-like, β-structured aggregates. The cross-β diffraction of the tested aggregates would imply that they are more specifically all amyloidogenic.
CD measurements were carried out on a Jasco J815. Samples were prepared by centrifuging the amyloid library at 25,000 g for 10 min and then removing the supernatant. The pellets were resuspended at an approximate concentration of 100 μg/ml in 10 mM HEPES pH 7.3 (for mixtures from 50 mM HEPES) or 10 mM NaOAc pH 4 (for mixtures from 50 mM NaOAc), the suspensions were then treated with an ultrasonic probe for 5 s, upon which the solutions were placed in 1 mm cuvettes, diluted as necessary to maintain the detector voltage below 600 V and scanned from 260–190 nm at 50 nm/min, 1 nm band-pass, 2 second integration, averaged over 3 repetitions.
as §1, §2
2. […]

[6] = pH 7.3, pellet (25,000 g, 10 min) resuspended ~100 μg/ml in 10 mM HEPES pH 7.3, crude peptide
[7] = pH 4.0, pellet (25,000 g, 10 min) resuspended ~100 μg/ml in 10 mM NaOAc pH 4, crude peptide

FTIR peak position in amide I region ([2]; pH 4.0 (50 mM NaOAc))	FTIR peak position in amide I region ([2]; pH 7.3 (50 mM HEPES))	ThT, fold increase in ThT fluorescence over background ([3]; pH 4.0, 50 mM NaOAc) [fold]	ThT, fold increase in ThT fluorescence over background ([3]; pH 7.3, 50 mM HEPES) [fold]	EM, fibrils in EM micrographs ([4]; pH 4.0, 50 mM NaOAc)	EM, fibrils in EM micrographs ([4]; pH 7.3, 50 mM HEPES)	CD spectrum class [5, 6]	CD spectrum class [5, 7]	Substance	k cat/K M [1] [M⁻¹ s⁻¹]	K M [1] [µM]	k cat [1]
1623 cm⁻¹	−	9	2	+		−	β++	Ac-YVDVHVDV-NH2 [Peptide 25, Ac-YVDVHVDV-CONH2]			
−	1625 cm⁻¹	1	129		+	β+	−	Ac-YVAVHVHV-NH2 [Peptide 27, Ac-YVAVHVHV-CONH2]	4.26 ± 0.13	7200 ± 2100	3.05±0.80 10^-2s^-1

The next lines start with the substance.

Substance	FTIR peak position in amide I region ([2]; pH 4.0 (50 mM NaOAc))	FTIR peak position in amide I region ([2]; pH 7.3 (50 mM HEPES))	ThT, fold increase in ThT fluorescence over background ([3]; pH 4.0, 50 mM NaOAc) [fold]	ThT, fold increase in ThT fluorescence over background ([3]; pH 7.3, 50 mM HEPES) [fold]	EM, fibrils in EM micrographs ([4]; pH 4.0, 50 mM NaOAc)	EM, fibrils in EM micrographs ([4]; pH 7.3, 50 mM HEPES)	CD spectrum class [5, 6]	CD spectrum class [5, 7]	k cat/K M [1] [M⁻¹ s⁻¹]	K M [1] [µM]	k cat [1]
Ac-YVHVHVDV-NH2 [Peptide 21, Ac-YVHVHVDV-CONH2]	−	1626 cm⁻¹	1	133	+	+	β+		0.473 ± 0.046	1230 ± 320	0.059±0.010 10^-2s^-1
Ac-YVSVHVHV-NH2 [Peptide 9, Ac-YVSVHVHV-CONH2]	−	1624 cm⁻¹	1	82		+	β++	−	1.461 ± 0.094	3710 ± 390	0.544±0.048 10^-2s^-1
Ac-YVHVHVHV-NH2 [Peptide 8, Ac-YVHVHVHV-CONH2]	−	1627 cm⁻¹	1	126	−	+	β+	−	2.288 ± 0.077	2390 ± 320	0.547±0.056 10^-2s^-1
Ac-YVHVHVSV-NH2 [Peptide 11, Ac-YVHVHVSV-CONH2]	−	1624 cm⁻¹	1	18		+	β++	−	6.29 ± 0.52	870 ± 150	0.514±0.051 10^-2s^-1
